Source: ChEMBL document CHEMBL1201862, “PubChem BioAssay data set” (2004)
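Dose response: 5 concentrations. Exposure: 48 h. Format: 96-well plates. Endpoint: linear interpolation; highest concentration if not reached. Abbreviation: GI50, concentration required for 50% inhibition of growth.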 Activity calls are given as the source filed them. Rule as the data show it: active = GI50 up to about 1.1 µM and inactive = higher.

What was measured:
Assay in all cases: growth of human tumour cells (NCI), 48 h
HOP-92 = system: HOP-92
SK-OV-3 = system: SK-OV-3
NCI-H23 = system: NCI-H23
KM12 = system: KM12
SN12C = system: SN12C
SW-620 = system: SW-620
SK-MEL-28 = system: SK-MEL-28
A498 = system: A498
PC-3 = system: PC-3
SR = system: SR
TK-10 = system: TK-10
HCT-116 = system: HCT-116
UO-31 = system: UO-31
SNB-19 = system: SNB-19
LOX IMVI = system: LOX IMVI
OVCAR-8 = system: OVCAR-8
SK-MEL-2 = system: SK-MEL-2
Malme-3M = system: Malme-3M
HT-29 = system: HT-29
NCI-H522 = system: NCI-H522
DU-145 = system: DU-145
UACC-62 = system: UACC-62
COLO 205 = system: COLO 205
BT-549 = system: BT-549
SK-MEL-5 = system: SK-MEL-5
M14 = system: M14
SF-268 = system: SF-268
T47D = system: T47D
SF-539 = system: SF-539
SF-295 = system: SF-295
MDA-N = system: MDA-N
CCRF-CEM = system: CCRF-CEM
EKVX = system: EKVX
U-251 = system: U-251
MOLT-4 = system: MOLT-4
786-0 = system: 786-0
MCF7 = system: MCF7
NCI-H460 = system: NCI-H460
NCI/ADR-RES = system: NCI/ADR-RES
CAKI-1 = system: CAKI-1
Hs-578T = system: Hs-578T
RXF 393 = system: RXF 393
ACHN = system: ACHN
NCI-H226 = system: NCI-H226
HCC 2998 = system: HCC 2998
HOP-62 = system: HOP-62
OVCAR-3 = system: OVCAR-3
MDA-MB-435 = system: MDA-MB-435
OVCAR-5 = system: OVCAR-5
HCT-15 = system: HCT-15
K562 = system: K562
MDA-MB-231 = system: MDA-MB-231
SNB-75 = system: SNB-75
OVCAR-4 = system: OVCAR-4
UACC-257 = system: UACC-257
A549 = system: A549
HL-60 = system: HL-60
RPMI-8226 = system: RPMI-8226
IGROV-1 = system: IGROV-1

Q: Which results are given for `COc1cc(OC)c2c(c1)OC(c1cccnc1)C(c1ccccc1)C2=O` (stereo not drawn)?
A: GI50 (HOP-92): > 100 µM (inactive); GI50 (SK-OV-3): > 100 µM (inactive); GI50 (NCI-H23): > 100 µM (inactive); GI50 (KM12): > 100 µM (inactive); GI50 (SN12C): > 100 µM (inactive); GI50 (SW-620): > 100 µM (inactive); GI50 (SK-MEL-28): > 100 µM (inactive); GI50 (A498): > 100 µM (inactive); GI50 (PC-3): 93.3 µM (inactive); GI50 (SR): > 100 µM (inactive); GI50 (TK-10): > 100 µM (inactive); GI50 (HCT-116): > 100 µM (inactive); GI50 (UO-31): 35.8 µM (inactive); GI50 (SNB-19): > 100 µM (inactive); GI50 (LOX IMVI): > 100 µM (inactive); GI50 (OVCAR-8): 59.3 µM (inactive); GI50 (SK-MEL-2): 34.4 µM (inactive); GI50 (Malme-3M): > 100 µM (inactive); GI50 (HT-29): > 100 µM (inactive); GI50 (NCI-H522): 72.1 µM (inactive); GI50 (DU-145): > 100 µM (inactive); GI50 (UACC-62): > 100 µM (inactive); GI50 (COLO 205): > 100 µM (inactive); GI50 (BT-549): > 100 µM (inactive); GI50 (SK-MEL-5): > 100 µM (inactive); GI50 (M14): > 100 µM (inactive); GI50 (SF-268): > 100 µM (inactive); GI50 (T47D): 52 µM (inactive); GI50 (SF-539): > 100 µM (inactive); GI50 (SF-295): > 100 µM (inactive); GI50 (MDA-N): 42.7 µM (inactive); GI50 (CCRF-CEM): > 100 µM (inactive); GI50 (EKVX): > 100 µM (inactive); GI50 (U-251): > 100 µM (inactive); GI50 (MOLT-4): > 100 µM (inactive); GI50 (786-0): > 100 µM (inactive); GI50 (MCF7): > 100 µM (inactive); GI50 (NCI-H460): 34 µM (inactive); GI50 (NCI/ADR-RES): 72.1 µM (inactive); GI50 (CAKI-1): 74.8 µM (inactive); GI50 (Hs-578T): 49.5 µM (inactive); GI50 (RXF 393): > 100 µM (inactive); GI50 (ACHN): > 100 µM (inactive); GI50 (NCI-H226): > 100 µM (inactive); GI50 (HCC 2998): > 100 µM (inactive); GI50 (HOP-62): > 100 µM (inactive); GI50 (OVCAR-3): 86.3 µM (inactive); GI50 (MDA-MB-435): 84.5 µM (inactive); GI50 (OVCAR-5): > 100 µM (inactive); GI50 (HCT-15): > 100 µM; GI50 (K562): > 100 µM (inactive); GI50 (MDA-MB-231): > 100 µM (inactive); GI50 (SNB-75): > 100 µM (inactive); GI50 (OVCAR-4): 80.2 µM (inactive); GI50 (UACC-257): > 100 µM (inactive); GI50 (A549): > 100 µM (inactive); GI50 (HL-60): > 100 µM (inactive); GI50 (RPMI-8226): > 100 µM (inactive); GI50 (IGROV-1): > 100 µM (inactive)

Q: `Cc1ccc(CNNC(=O)c2cc[n+]([BH2-]C#N)cc2)cc1` was tested. Which GI50 (HOP-92) did it give?
A: > 100 µM (inactive)

Q: What about the GI50 (SK-OV-3) of the same molecule?
A: > 100 µM (inactive)

Q: What about the GI50 (NCI-H23) of the same molecule?
A: > 100 µM (inactive)

Q: And the GI50 (KM12)?
A: > 100 µM (inactive)

Q: And the GI50 (SN12C)?
A: > 100 µM (inactive)

Q: What about the GI50 (SW-620) of the same molecule?
A: > 100 µM (inactive)

Q: What about the GI50 (SK-MEL-28) of the same molecule?
A: > 100 µM (inactive)

Q: What about the GI50 (A498) of the same molecule?
A: 15.6 µM (inactive)

Q: What about the GI50 (PC-3) of the same molecule?
A: 84.9 µM (inactive)

Q: What about the GI50 (SR) of the same molecule?
A: > 100 µM (inactive)

Q: And the GI50 (TK-10)?
A: > 100 µM (inactive)

Q: And the GI50 (HCT-116)?
A: > 100 µM (inactive)

Q: And the GI50 (UO-31)?
A: > 100 µM (inactive)

Q: What about the GI50 (SNB-19) of the same molecule?
A: > 100 µM (inactive)

Q: What about the GI50 (LOX IMVI) of the same molecule?
A: > 100 µM (inactive)

Q: What about the GI50 (OVCAR-8) of the same molecule?
A: > 100 µM (inactive)

Q: And the GI50 (SK-MEL-2)?
A: > 100 µM (inactive)

Q: What about the GI50 (Malme-3M) of the same molecule?
A: > 100 µM (inactive)

Q: And the GI50 (HT-29)?
A: > 100 µM (inactive)

Q: What about the GI50 (NCI-H522) of the same molecule?
A: 95.5 µM (inactive)

Q: What about the GI50 (DU-145) of the same molecule?
A: > 100 µM (inactive)

Q: And the GI50 (UACC-62)?
A: 17.1 µM (inactive)

Q: And the GI50 (COLO 205)?
A: > 100 µM (inactive)

Q: What about the GI50 (BT-549) of the same molecule?
A: > 100 µM (inactive)

Q: And the GI50 (SK-MEL-5)?
A: > 100 µM (inactive)

Q: And the GI50 (M14)?
A: > 100 µM (inactive)

Q: And the GI50 (SF-268)?
A: > 100 µM (inactive)

Q: And the GI50 (T47D)?
A: > 100 µM (inactive)

Q: And the GI50 (SF-539)?
A: > 100 µM (inactive)

Q: And the GI50 (SF-295)?
A: > 100 µM (inactive)

Q: What about the GI50 (MDA-N) of the same molecule?
A: > 100 µM (inactive)

Q: What about the GI50 (CCRF-CEM) of the same molecule?
A: 26.3 µM (inactive)

Q: And the GI50 (EKVX)?
A: 87.7 µM (inactive)

Q: And the GI50 (U-251)?
A: > 100 µM (inactive)

Q: What about the GI50 (MOLT-4) of the same molecule?
A: 71.3 µM (inactive)

Q: And the GI50 (786-0)?
A: > 100 µM (inactive)

Q: And the GI50 (MCF7)?
A: 18.1 µM (inactive)

Q: And the GI50 (NCI-H460)?
A: > 100 µM (inactive)

Q: And the GI50 (NCI/ADR-RES)?
A: > 100 µM (inactive)

Q: What about the GI50 (CAKI-1) of the same molecule?
A: > 100 µM (inactive)

Q: And the GI50 (Hs-578T)?
A: 48.5 µM (inactive)

Q: And the GI50 (RXF 393)?
A: > 100 µM (inactive)

Q: And the GI50 (ACHN)?
A: 11.3 µM (inactive)

Q: What about the GI50 (NCI-H226) of the same molecule?
A: > 100 µM (inactive)

Q: What about the GI50 (HCC 2998) of the same molecule?
A: > 100 µM (inactive)

Q: And the GI50 (HOP-62)?
A: > 100 µM (inactive)

Q: And the GI50 (OVCAR-3)?
A: > 100 µM (inactive)

Q: And the GI50 (MDA-MB-435)?
A: > 100 µM (inactive)

Q: What about the GI50 (OVCAR-5) of the same molecule?
A: > 100 µM (inactive)

Q: And the GI50 (HCT-15)?
A: > 100 µM

Q: And the GI50 (K562)?
A: 49.2 µM (inactive)

Q: What about the GI50 (MDA-MB-231) of the same molecule?
A: 99.3 µM (inactive)

Q: And the GI50 (SNB-75)?
A: 72.6 µM (inactive)

Q: What about the GI50 (OVCAR-4) of the same molecule?
A: > 100 µM (inactive)

Q: And the GI50 (UACC-257)?
A: > 100 µM (inactive)

Q: And the GI50 (A549)?
A: 95.7 µM (inactive)

Q: What about the GI50 (HL-60) of the same molecule?
A: 83.8 µM (inactive)

Q: What about the GI50 (RPMI-8226) of the same molecule?
A: > 100 µM (inactive)

Q: What about the GI50 (IGROV-1) of the same molecule?
A: > 100 µM (inactive)
